Values belong to the molecule of their own block, whether it stands above or below them.
Key:
[1] = biological target: T1, Inhibitor of nuclear factor kappa-B kinase subunit alpha (Homo sapiens) (UniProt O15111); details: at 10 µM
T1 sequence (whole entry): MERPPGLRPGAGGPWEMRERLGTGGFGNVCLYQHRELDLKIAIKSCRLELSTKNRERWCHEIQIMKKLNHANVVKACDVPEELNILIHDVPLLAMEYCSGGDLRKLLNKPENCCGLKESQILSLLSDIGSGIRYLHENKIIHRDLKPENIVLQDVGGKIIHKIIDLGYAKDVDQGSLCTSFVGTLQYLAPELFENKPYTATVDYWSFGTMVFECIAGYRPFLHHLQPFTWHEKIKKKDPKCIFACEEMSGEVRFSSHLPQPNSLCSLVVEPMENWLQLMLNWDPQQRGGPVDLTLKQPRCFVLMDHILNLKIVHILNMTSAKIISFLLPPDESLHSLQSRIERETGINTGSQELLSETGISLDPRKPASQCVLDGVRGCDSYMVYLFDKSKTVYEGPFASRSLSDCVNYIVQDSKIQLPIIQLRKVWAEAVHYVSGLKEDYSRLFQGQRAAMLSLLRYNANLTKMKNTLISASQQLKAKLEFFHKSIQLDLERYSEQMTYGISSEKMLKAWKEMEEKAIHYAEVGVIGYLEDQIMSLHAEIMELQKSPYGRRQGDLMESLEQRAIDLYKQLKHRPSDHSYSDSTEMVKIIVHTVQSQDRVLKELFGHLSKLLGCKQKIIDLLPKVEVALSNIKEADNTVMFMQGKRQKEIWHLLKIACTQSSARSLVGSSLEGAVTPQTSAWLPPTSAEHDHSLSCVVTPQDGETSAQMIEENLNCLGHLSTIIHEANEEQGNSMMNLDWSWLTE

[2] = biological target: T2, Phosphorylase b kinase gamma catalytic chain, liver/testis isoform (Homo sapiens) (UniProt P15735); experiment: Selectivity interaction (KinomeScan (DiscoverX)) EUB0001049a PHKG2; details: at 1 µM
T2 sequence (whole entry): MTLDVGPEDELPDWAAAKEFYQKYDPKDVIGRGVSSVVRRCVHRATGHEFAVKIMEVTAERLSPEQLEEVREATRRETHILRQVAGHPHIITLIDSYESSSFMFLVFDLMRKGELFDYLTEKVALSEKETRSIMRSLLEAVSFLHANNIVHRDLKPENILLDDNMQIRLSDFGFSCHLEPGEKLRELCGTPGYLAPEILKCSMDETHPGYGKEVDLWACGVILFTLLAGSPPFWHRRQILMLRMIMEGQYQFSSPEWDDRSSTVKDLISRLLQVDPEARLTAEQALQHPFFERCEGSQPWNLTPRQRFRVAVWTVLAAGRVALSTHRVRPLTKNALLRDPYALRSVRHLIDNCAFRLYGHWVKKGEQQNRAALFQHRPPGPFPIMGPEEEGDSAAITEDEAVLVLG

[3] = biological target: Dual specificity mitogen-activated protein kinase kinase 1 (Homo sapiens, UniProt Q02750); experiment: Selectivity interaction (Ambit KINOMEscan and KiNATiv profiling in Jurkat cells) EUB0000090b MAP2K1; type: cell-based; details: at 1 µM
Sequence of Dual specificity mitogen-activated protein kinase kinase 1 (Q02750 whole entry): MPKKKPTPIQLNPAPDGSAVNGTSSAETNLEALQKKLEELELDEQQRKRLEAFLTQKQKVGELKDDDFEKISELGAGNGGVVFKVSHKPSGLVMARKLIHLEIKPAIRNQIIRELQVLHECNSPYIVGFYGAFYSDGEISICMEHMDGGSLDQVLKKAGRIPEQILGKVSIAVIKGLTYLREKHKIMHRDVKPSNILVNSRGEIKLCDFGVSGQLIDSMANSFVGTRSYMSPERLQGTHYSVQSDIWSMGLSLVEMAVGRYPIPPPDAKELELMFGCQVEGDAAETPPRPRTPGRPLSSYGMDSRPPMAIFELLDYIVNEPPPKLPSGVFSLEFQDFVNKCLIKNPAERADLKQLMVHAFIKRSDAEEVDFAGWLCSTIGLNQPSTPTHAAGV

[4] = biological target: Mitogen-activated protein kinase 7 (Homo sapiens) (UniProt Q13164); experiment: Selectivity interaction (Kinase panel (Carna Biosciences)) EUB0001542aTs MAPK7; details: at 1 µM
Sequence of Mitogen-activated protein kinase 7 (Homo sapiens) (Q13164 2-816 limits assumed): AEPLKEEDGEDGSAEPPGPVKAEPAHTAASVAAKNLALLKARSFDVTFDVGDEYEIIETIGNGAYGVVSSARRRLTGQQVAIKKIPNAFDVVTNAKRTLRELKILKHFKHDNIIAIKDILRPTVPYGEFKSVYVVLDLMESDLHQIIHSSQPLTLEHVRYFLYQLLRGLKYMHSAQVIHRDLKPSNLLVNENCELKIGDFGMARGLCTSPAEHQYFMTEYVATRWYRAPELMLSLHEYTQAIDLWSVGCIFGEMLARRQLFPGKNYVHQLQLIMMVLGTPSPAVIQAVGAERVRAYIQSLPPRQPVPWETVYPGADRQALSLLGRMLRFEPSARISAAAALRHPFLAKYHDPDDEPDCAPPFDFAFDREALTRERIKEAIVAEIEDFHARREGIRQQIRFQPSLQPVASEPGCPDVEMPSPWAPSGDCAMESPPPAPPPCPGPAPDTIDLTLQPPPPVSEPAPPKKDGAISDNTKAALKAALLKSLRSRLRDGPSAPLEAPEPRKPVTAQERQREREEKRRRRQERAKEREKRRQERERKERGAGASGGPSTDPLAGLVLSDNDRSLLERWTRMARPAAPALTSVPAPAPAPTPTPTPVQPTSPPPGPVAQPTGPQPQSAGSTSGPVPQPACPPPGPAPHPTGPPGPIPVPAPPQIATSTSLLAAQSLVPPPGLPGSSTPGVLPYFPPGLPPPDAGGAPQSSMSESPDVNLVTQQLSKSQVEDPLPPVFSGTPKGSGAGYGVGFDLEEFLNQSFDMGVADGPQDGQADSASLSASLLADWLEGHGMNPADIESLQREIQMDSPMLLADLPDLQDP

[5] = biological target: T3, Dual serine/threonine and tyrosine protein kinase (Homo sapiens) (UniProt Q6XUX3); experiment: Selectivity interaction (ProQinase) EUB0000171b DSTYK
T3 sequence (whole entry): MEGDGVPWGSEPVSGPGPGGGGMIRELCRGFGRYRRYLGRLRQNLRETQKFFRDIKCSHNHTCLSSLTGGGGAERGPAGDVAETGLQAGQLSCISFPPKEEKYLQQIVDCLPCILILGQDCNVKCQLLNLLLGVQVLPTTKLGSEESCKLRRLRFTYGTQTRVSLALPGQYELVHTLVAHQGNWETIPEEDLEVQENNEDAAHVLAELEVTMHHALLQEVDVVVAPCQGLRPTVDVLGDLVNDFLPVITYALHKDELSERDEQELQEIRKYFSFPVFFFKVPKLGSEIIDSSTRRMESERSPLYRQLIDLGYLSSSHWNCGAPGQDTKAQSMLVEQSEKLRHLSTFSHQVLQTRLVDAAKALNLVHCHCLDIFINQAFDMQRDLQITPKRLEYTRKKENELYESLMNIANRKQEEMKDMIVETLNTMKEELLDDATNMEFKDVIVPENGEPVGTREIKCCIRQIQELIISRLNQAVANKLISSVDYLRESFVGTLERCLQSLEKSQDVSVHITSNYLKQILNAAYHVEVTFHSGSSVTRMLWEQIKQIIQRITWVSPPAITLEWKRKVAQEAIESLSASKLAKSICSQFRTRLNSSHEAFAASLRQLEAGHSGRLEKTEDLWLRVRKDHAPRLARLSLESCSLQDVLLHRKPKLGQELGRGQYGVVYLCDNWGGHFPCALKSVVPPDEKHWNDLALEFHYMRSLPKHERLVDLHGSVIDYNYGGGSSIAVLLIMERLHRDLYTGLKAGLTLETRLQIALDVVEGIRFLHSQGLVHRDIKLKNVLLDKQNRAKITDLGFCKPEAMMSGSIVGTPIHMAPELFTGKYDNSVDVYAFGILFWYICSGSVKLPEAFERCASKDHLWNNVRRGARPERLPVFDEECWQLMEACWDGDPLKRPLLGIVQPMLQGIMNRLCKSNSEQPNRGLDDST

[6] = biological target: T4, Mitogen-activated protein kinase 13 (Homo sapiens) (UniProt O15264); experiment: Selectivity interaction (KinomeScan (DiscoverX)) EUB0000045b MAPK13
T4 sequence (whole entry): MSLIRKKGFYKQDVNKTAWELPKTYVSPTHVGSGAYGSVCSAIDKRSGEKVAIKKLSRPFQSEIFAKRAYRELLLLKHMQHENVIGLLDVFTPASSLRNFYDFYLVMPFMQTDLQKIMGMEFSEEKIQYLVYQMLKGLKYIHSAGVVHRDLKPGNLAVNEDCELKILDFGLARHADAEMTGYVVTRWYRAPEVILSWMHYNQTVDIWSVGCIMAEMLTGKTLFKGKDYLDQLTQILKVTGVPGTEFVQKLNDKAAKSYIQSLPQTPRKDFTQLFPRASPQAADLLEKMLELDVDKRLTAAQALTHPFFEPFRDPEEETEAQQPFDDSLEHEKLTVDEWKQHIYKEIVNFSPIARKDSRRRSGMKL

[7] = biological target: Proto-oncogene tyrosine-protein kinase Src (Homo sapiens, UniProt P12931); experiment: Selectivity interaction (ActivX KiNativ screen (ex vivo kinase selectivity in human PBMCs)) EUB0001619a SRC; type: cell-based; details: PBMC, at 1 µM
Sequence of Proto-oncogene tyrosine-protein kinase Src (P12931 2-536 limits assumed): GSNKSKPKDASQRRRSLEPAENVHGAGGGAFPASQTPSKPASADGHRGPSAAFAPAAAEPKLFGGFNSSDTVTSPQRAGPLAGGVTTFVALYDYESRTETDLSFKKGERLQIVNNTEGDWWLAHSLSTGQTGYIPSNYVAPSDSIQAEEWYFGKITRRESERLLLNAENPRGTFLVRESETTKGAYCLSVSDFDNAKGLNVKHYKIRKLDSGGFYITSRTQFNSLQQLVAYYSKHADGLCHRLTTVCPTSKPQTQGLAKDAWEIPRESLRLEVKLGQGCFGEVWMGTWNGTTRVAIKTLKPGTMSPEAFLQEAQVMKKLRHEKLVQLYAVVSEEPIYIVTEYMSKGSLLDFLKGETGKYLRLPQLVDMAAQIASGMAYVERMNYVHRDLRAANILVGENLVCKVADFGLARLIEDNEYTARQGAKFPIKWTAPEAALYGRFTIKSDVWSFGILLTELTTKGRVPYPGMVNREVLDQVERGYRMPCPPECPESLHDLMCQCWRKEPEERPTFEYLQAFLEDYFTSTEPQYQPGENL

[8] = biological target: Cyclin-dependent kinase-like 3 (Homo sapiens) (UniProt Q8IVW4); experiment: Selectivity interaction (KinomeScan (DiscoverX)) EUB0001619a CDKL3; details: at 1 µM
Sequence of Cyclin-dependent kinase-like 3 (Homo sapiens) (Q8IVW4 whole entry, looked up): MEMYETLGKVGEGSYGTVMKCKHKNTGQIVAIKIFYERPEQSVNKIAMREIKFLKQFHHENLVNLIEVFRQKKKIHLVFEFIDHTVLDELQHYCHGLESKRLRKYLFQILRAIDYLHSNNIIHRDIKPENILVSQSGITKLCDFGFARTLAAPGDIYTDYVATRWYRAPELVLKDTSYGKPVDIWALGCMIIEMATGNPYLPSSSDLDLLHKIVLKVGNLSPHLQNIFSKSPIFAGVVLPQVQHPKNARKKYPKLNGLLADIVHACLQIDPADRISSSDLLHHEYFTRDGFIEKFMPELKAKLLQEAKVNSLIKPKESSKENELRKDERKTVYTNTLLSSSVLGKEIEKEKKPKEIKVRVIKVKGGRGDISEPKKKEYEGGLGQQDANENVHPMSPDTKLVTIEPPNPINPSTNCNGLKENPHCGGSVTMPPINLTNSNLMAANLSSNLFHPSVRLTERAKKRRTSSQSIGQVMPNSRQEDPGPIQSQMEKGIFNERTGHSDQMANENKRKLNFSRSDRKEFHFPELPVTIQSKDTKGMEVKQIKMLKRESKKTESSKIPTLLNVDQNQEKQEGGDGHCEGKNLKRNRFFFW

[9] = biological target: Mitogen-activated protein kinase kinase kinase kinase 5 (Homo sapiens) (UniProt Q9Y4K4); experiment: Selectivity interaction (KinomeScan (DiscoverX)) EUB0000618a MAP4K5; details: at 10 µM
Sequence of Mitogen-activated protein kinase kinase kinase kinase 5 (Homo sapiens) (Q9Y4K4 whole entry, looked up): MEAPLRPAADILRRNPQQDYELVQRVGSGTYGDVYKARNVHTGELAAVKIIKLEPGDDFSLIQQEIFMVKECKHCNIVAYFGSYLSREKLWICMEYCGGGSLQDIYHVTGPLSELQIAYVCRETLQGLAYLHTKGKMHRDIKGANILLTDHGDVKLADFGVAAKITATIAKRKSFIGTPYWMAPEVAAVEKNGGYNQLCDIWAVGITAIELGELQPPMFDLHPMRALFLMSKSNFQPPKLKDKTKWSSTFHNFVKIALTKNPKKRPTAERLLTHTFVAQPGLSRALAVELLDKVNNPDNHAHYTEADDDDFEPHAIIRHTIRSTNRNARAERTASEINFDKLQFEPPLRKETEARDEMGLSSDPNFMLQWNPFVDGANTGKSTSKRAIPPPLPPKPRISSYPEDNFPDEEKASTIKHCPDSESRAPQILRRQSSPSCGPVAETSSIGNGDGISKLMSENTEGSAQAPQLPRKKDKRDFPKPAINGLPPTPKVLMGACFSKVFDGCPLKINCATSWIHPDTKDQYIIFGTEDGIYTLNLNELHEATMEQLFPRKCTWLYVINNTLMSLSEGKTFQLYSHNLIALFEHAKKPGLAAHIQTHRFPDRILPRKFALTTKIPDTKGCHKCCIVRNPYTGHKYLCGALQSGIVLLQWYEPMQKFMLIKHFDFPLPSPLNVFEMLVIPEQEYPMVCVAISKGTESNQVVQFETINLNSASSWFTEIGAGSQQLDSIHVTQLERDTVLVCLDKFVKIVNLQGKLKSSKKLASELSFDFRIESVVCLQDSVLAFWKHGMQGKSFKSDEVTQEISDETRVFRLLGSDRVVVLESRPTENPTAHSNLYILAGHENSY

SMILES: Cc1cc([C@@H](C)Nc2ccccc2C(=O)O)c2nc(N3CCOCC3)cc(=O)n2c1 [AZD-6482]
% of control [1]: 100%

SMILES: COc1cc(Nc2nc(C)cc(-c3cnn4nc(OC)ccc34)n2)cc(C(F)(F)F)c1
% of control [2]: 100%

SMILES: CN(C)C/C=C/C(=O)Nc1ccc(C(=O)N2CCCC(Nc3ncc(Cl)c(-c4c[nH]c5ccccc45)n3)C2)cc1 (stereo unspecified)
% of control [3]: 99%

% of inhibition [4]: 63%
SMILES: Cn1cc(Nc2nccc(N3CC4CCC(C3)N4C(=O)[C@@H]3CC3(F)F)n2)cn1

% of control ([5]; at 1 µM): 90%
% of control ([5]; at 5 µM): 67%
SMILES: C=CC(=O)Nc1cccc(C(=O)Nc2ccc(Nc3cc(-c4[nH]c(SC)nc4C)ccn3)cc2)c1

SMILES: C=CC(=O)Nc1cc(-n2c(=O)ccc3cnc4ccc(-c5ccc(NS(C)(=O)=O)cc5)cc4c32)ccc1C
% of control ([6]; at 1 µM): 100%
% of control ([6]; at 10 µM): 100%

SMILES: N#Cc1cccc(-c2c[nH]c3ncnc(N4CCOCC4)c23)c1
% of inhibition [7]: 30%
% of control [8]: 100%

SMILES: O[C@H]1CC[C@H](Nc2ncc3nc(Nc4c(F)cc(F)cc4F)n([C@H]4CCOC4)c3n2)CC1
% of control [9]: 100%

Source: ChEMBL document CHEMBL5465560, “Selectivity Literature for EUbOPEN Chemogenomic Library” (2024)
